We go through nine compounds from ChEMBL document CHEMBL1201862, “PubChem BioAssay data set” (2004).

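1) Cells in 96-well plates. 2) Compound, 48 h, 5 concentrations. 3) Linear interpolation between surrounding doses. 4) Unreached endpoint = highest concentration. Abbreviation: GI50, concentration required for 50% inhibition of growth.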 Calls of active or inactive are those of the source. No stated cut-off is given here; in the data, active = GI50 up to about 1.1 µM and inactive = higher.

Some test systems named below: SN12C; CAKI-1; COLO 205; M14; RPMI-8226; 786-0; EKVX; IGROV-1; KM-20L2; UO-31; HOP-92; SNB-75; A498; SK-MEL-28; UACC-62; K562; HL-60.
Common to all, as to experiment: NCI anticancer screen, dose series, 48 h

As to `S=c1sc2c(Cl)ncnc2n1-c1ccccc1`, the GI50 is 15.8 µM (inactive) in the experiment with SN12C; 4.88 µM (inactive) in the experiment with CAKI-1; 14 µM (inactive) in the experiment with COLO 205; 13.3 µM (inactive) with M14; 23.8 µM (inactive) with RPMI-8226; 15.1 µM (inactive) with 786-0. Also, the GI50 in the experiment with EKVX is 17.7 µM (inactive); in the experiment on IGROV-1 it was 15 µM (inactive); in the experiment on KM-20L2 it was 19.1 µM (inactive); with UO-31, 18.7 µM (inactive); in the experiment with HOP-92, 19.7 µM (inactive); in the experiment on SNB-75, 14 µM (inactive). Moreover, the results for the GI50 in the experiment with A498, with SK-MEL-28 and in the experiment with UACC-62 were 16.6 µM (inactive), 11.2 µM (inactive) and 9.62 µM (inactive), respectively.
Regarding `CCCCN(CC)CC(C(C)=O)c1c(O)c2ccccc2oc1=O` (stereo not drawn), the GI50 in the experiment with SN12C, in the experiment on K562, in the experiment with CAKI-1, in the experiment with COLO 205, in the experiment on M14 and in the experiment on RPMI-8226 was > 100 µM (inactive) throughout. In addition, the GI50 in the experiment on 786-0, in the experiment on HL-60, in the experiment on EKVX, in the experiment on IGROV-1, with KM-20L2 and with UO-31 was > 100 µM (inactive) each time. Further, the GI50 in the experiment with SNB-75, with A498, with SK-MEL-28 and in the experiment on UACC-62 was > 100 µM (inactive) each time.
Regarding `O=c1[nH]cnc2c1nnn2C1C=C(CO)C(O)C1O` (stereo not drawn), the GI50 with SN12C, in the experiment on K562, in the experiment with CAKI-1, with COLO 205, with M14 and in the experiment on RPMI-8226 was > 100 µM (inactive) throughout. Further, the GI50 with 786-0, in the experiment on EKVX, with IGROV-1, in the experiment with KM-20L2, with UO-31 and in the experiment on HOP-92 was > 100 µM (inactive) in each case. Also, the GI50 in the experiment on SNB-75, in the experiment with A498, in the experiment with SK-MEL-28 and with UACC-62 was > 100 µM (inactive) in each case.
Take `CCOC(=O)C(C(=O)c1ccccc1-c1ccccc1C(=O)O)=P(c1ccccc1)(c1ccccc1)c1ccccc1`: the GI50 in the experiment with SN12C is 30.5 µM (inactive); with K562, 20 µM (inactive); with COLO 205 it was 19.1 µM (inactive); with M14 it was 38.5 µM (inactive); in the experiment with RPMI-8226 it was 13.9 µM (inactive); in the experiment on 786-0, 37.8 µM (inactive). Further, the GI50 in the experiment with HL-60 is 19.8 µM (inactive); with EKVX, 32.9 µM (inactive); with IGROV-1 it was 20.6 µM (inactive); in the experiment on KM-20L2, 21 µM (inactive); in the experiment with UO-31, > 10 µM (inactive); in the experiment on SNB-75, 12.8 µM (inactive). Besides, the GI50 is 25.4 µM (inactive) in the experiment on A498, 18.7 µM (inactive) in the experiment on SK-MEL-28 and 17.4 µM (inactive) in the experiment with UACC-62.
For the compound `CCN(CC)CC(C)(C)C(=O)/C=C/c1cccc(/C=C/C(=O)C(C)(C)CN(CC)CC)c1`, the GI50 is 0.303 µM (active) with SN12C; 0.431 µM (active) with K562; 0.286 µM (active) in the experiment with CAKI-1; 0.247 µM (active) with COLO 205; 1.48 µM (inactive) with M14; 2.06 µM (inactive) in the experiment with RPMI-8226. In addition, the GI50 was 0.579 µM (active) with 786-0; 1.16 µM (inactive) in the experiment with EKVX; 1.02 µM (active) in the experiment with IGROV-1; 1.07 µM (active) in the experiment with KM-20L2; 1.75 µM (inactive) in the experiment with UO-31; 0.504 µM (active) in the experiment on HOP-92. Further, the GI50 was 0.176 µM (active) in the experiment with SNB-75, 1.36 µM (inactive) in the experiment on A498, 1.42 µM (inactive) in the experiment on SK-MEL-28 and 1.74 µM (inactive) in the experiment with UACC-62.
Consider `Cc1cc2c(c(C#N)c1C)NC(=O)CCC2=O`, for which the GI50 in the experiment on SN12C, in the experiment on K562, in the experiment on CAKI-1, with COLO 205, with M14 and in the experiment on RPMI-8226 was > 100 µM (inactive) in each case. In addition, the GI50 in the experiment on 786-0 was > 100 µM (inactive); in the experiment with HL-60 it was > 100 µM (inactive); in the experiment on EKVX, > 100 µM (inactive); in the experiment with IGROV-1, > 100 µM (inactive); in the experiment with KM-20L2 it was > 100 µM (inactive); in the experiment on UO-31, 16.5 µM (inactive). Moreover, the GI50 with SNB-75, with A498, in the experiment on SK-MEL-28 and in the experiment on UACC-62 was > 100 µM (inactive) throughout.
On to `N#CC(c1ccccc1)c1nc2ccc(N)cc2[n+]([O-])c1C(C#N)c1ccccc1` (stereo not drawn), for which the GI50 in the experiment on SN12C is 79.1 µM (inactive); with K562, 44.5 µM (inactive); with CAKI-1, 69.8 µM (inactive); in the experiment with COLO 205, 76.4 µM (inactive); in the experiment with M14, 86.7 µM (inactive); in the experiment on 786-0 it was > 100 µM (inactive). Besides, the GI50 was 34.9 µM (inactive) with HL-60; > 100 µM (inactive) with EKVX; > 100 µM (inactive) in the experiment with IGROV-1; 75.3 µM (inactive) in the experiment with KM-20L2; 68.2 µM (inactive) with UO-31; > 100 µM (inactive) in the experiment on A498. In addition, the GI50 with SK-MEL-28 was > 100 µM (inactive); in the experiment with UACC-62, 47.3 µM (inactive).
On to `C1=Cc2nc1c(-c1ccncc1)c1ccc([n-]1)c(-c1ccncc1)c1nc(c(-c3ccncc3)c3ccc([n-]3)c2-c2ccncc2)C=C1.[Zn+2]`, for which the GI50 with SN12C, in the experiment on K562, in the experiment on CAKI-1, in the experiment with COLO 205, with M14 and in the experiment with RPMI-8226 was > 100 µM (inactive) each time. For the same compound, the GI50 in the experiment on 786-0, with HL-60, in the experiment with EKVX, with IGROV-1, in the experiment with KM-20L2 and in the experiment on UO-31 was > 100 µM (inactive) each time. For the same compound, the GI50 in the experiment on HOP-92, in the experiment with SNB-75, in the experiment on SK-MEL-28 and with UACC-62 was > 100 µM (inactive) each time.
Consider `C[C@@H]1CC[C@@]2(C)OC(c3ccccc3)[C@H](CO)N2C1=O` (stereo partly drawn), for which the GI50 with SN12C, with K562, in the experiment on CAKI-1, in the experiment with COLO 205, in the experiment on RPMI-8226 and in the experiment on 786-0 was > 100 µM (inactive) throughout. The GI50 in the experiment with EKVX, with IGROV-1, in the experiment with KM-20L2, in the experiment on HOP-92, with SNB-75 and with A498 was > 100 µM (inactive) in each case. In addition, the GI50 in the experiment with SK-MEL-28 and in the experiment on UACC-62 was > 100 µM (inactive) each time.
